Test results taken from ChEMBL document CHEMBL1146045, “Design of novel, potent, and selective human beta-tryptase inhibitors based on alpha-keto-[1,2,4]-oxadiazoles” (Bioorg Med Chem Lett, 2006).
In brackets after ≈: the same amount, converted by molar mass.

Key:
[1] = Solubility at pH 7.4; type: physicochemical; conditions: buffer
[2] = target: Tryptase beta-1 (Homo sapiens, UniProt Q15661); assay: Inhibition of human beta tryptase
[3] = target: Trypsin (Homo sapiens, UniProt P07477+P07478+P35030); assay: Inhibition of human trypsin; type: protein assay
[4] = target: T1, hERG (KCNH2) (Homo sapiens, UniProt Q12809); assay: Inhibition of hERG at 1 uM; type: toxicity
[5] = Stability in human liver microsome after 1 hr; type: ADME; conditions: liver microsomes, read-out: Stability
[6] = target: T1, hERG (KCNH2); assay: Inhibition of hERG at 10 uM; type: toxicity
[7] = target: Coagulation factor X (Homo sapiens, UniProt P00742); assay: Inhibition of F10a
[8] = target: Prothrombin (Homo sapiens, UniProt P00734); assay: Inhibition of thrombin
[9] = target: T2, Coagulation factor VII (Homo sapiens, UniProt P08709); assay: Inhibition of F7a
T2 sequence (P08709 whole entry): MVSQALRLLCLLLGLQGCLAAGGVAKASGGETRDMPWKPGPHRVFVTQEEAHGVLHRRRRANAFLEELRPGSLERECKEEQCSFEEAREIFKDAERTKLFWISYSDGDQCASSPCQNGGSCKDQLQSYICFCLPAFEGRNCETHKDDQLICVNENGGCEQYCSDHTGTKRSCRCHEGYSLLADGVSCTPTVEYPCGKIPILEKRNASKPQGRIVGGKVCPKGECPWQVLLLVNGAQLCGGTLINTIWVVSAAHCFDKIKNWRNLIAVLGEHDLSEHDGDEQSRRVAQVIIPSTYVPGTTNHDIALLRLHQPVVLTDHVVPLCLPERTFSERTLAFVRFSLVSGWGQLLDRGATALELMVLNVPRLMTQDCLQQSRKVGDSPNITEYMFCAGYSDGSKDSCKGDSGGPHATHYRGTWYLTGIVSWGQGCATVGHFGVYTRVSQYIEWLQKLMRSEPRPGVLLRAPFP

Chain of Tryptase beta-1 (Q15661 whole entry): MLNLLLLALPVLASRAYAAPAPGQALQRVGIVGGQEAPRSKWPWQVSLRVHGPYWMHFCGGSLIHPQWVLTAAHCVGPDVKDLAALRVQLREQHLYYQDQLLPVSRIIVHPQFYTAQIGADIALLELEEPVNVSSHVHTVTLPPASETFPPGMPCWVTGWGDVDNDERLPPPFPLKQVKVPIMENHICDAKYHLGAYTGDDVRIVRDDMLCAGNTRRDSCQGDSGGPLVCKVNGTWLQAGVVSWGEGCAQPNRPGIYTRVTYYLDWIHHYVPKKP
T1 sequence (Q12809 whole entry): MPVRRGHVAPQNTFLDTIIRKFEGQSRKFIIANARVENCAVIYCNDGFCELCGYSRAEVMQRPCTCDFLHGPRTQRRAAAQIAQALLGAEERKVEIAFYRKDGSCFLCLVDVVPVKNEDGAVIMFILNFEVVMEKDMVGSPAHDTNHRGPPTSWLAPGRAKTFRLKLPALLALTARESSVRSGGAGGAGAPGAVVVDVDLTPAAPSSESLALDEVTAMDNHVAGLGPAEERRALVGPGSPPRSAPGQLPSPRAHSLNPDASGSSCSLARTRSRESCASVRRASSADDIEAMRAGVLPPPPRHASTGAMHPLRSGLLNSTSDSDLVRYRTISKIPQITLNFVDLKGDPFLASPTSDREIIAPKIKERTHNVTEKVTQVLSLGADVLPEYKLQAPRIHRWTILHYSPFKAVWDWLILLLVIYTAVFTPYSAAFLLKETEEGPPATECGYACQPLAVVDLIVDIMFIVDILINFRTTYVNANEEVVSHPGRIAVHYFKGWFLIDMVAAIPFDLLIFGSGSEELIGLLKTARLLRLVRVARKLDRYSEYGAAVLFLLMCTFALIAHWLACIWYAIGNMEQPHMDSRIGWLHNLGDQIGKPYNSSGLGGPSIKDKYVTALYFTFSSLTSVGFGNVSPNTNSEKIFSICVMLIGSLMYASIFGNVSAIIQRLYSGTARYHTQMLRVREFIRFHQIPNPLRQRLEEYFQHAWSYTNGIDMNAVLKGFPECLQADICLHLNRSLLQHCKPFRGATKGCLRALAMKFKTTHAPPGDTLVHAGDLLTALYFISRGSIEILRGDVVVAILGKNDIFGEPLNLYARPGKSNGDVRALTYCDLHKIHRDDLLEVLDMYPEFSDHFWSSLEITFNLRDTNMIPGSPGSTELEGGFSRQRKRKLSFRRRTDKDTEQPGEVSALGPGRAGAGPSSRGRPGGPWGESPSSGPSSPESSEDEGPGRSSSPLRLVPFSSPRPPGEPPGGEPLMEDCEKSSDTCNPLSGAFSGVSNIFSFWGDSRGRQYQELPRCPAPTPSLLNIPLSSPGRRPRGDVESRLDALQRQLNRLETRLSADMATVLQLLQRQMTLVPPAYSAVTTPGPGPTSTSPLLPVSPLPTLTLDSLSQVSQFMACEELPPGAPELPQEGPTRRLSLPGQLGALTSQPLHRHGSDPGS
Chain of Coagulation factor X (P00742 41-179 limits assumed): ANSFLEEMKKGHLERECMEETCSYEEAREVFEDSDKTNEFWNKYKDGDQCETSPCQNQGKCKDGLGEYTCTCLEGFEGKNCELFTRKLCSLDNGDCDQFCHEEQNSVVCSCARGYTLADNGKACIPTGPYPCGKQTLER
Chain of Coagulation factor X (P00742 235-488 limits assumed): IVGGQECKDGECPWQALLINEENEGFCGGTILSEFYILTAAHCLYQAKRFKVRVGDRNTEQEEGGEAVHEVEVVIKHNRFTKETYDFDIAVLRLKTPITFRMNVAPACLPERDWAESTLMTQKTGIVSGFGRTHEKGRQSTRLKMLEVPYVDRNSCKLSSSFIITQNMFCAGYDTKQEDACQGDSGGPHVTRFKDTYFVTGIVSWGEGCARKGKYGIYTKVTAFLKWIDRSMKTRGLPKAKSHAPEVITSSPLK

| solubility [1] [µM] | Ki [2] [nM] | Ki [3] [nM] | Compound | also measured |
| --- | --- | --- | --- | --- |
| 333 (≈ 202 µg/mL) | 3.5 | 18 | NCCCC[C@H](NC(=O)OCc1ccccc1)C(=O)c1noc(Cc2ccc(C(=O)NCCc3cc(F)cc(F)c3)cc2)n1 |  |
| 313 (≈ 191 µg/mL) | 1.5 | 410 | NCCCC[C@H](NC(=O)c1cc(F)cc(F)c1)C(=O)c1noc(Cc2ccc(C(=O)NCCc3cccc(Cl)c3)cc2)n1 |  |
| 245 (≈ 143 µg/mL) | 39 | 34 | Cc1ccc(CNC(=O)c2ccc(Cc3nc(C(=O)[C@H](CCCCN)NC(=O)OCc4ccccc4)no3)cc2)cc1C |  |
| 100 (≈ 60.6 µg/mL) | 11 | 15 | NCCCC[C@H](NC(=O)OCc1ccccc1)C(=O)c1noc(Cc2ccc(C(=O)NCc3ccc4ccccc4c3)cc2)n1 |  |
|  | 230 | 33 | NCCCC[C@H](NC(=O)OCc1ccccc1)C(=O)c1noc(CN2CCN(C(=O)CCc3ccccc3)CC2)n1 |  |
| 348 (≈ 157 µg/mL) | 770 | 22 | COc1ccc(Cc2nc(C(=O)[C@H](CCCCN)NC(=O)OCc3ccccc3)no2)cc1 |  |
| 77.2 (≈ 46.8 µg/mL) | 13 | 26 | NCCCC[C@H](NC(=O)OCc1ccccc1)C(=O)c1noc(Cc2ccc(C(=O)NCc3cccc4ccccc34)cc2)n1 |  |
| 390 (≈ 231 µg/mL) | 1.8 | 240 | NCCCC[C@H](NC(=O)c1ccc(F)cc1)C(=O)c1noc(Cc2ccc(C(=O)NCCc3cccc(Cl)c3)cc2)n1 |  |
| 30 (≈ 16.6 µg/mL) | 2 | 470 | CC(C)(C)C(=O)N[C@@H](CCCCN)C(=O)c1noc(Cc2ccc(C(=O)NCCc3cccc(Cl)c3)cc2)n1 |  |
| 472 (≈ 303 µg/mL) | 140 | 3.7 | NCCCC[C@H](NC(=O)OCc1ccccc1)C(=O)c1noc(Cc2ccc(C(=O)N3CCN(Cc4ccccc4F)CC3)cc2)n1 |  |
| 299 (≈ 180 µg/mL) | 2.9 | 11 | NCCCC[C@H](NC(=O)OCc1ccccc1)C(=O)c1noc(Cc2ccc(C(=O)NCCOc3ccc(F)cc3)cc2)n1 |  |
|  |  | 170 | CCOC(=O)N[C@@H](CCCCN)C(=O)c1noc(Cc2ccc(C(=O)NC3Cc4ccccc4C3)cc2)n1 | remaining at 1 h [5]: 64%; Ki [7]: 140000 nM; Ki [8]: 60000 nM; Ki [9]: > 150000 nM |
| 284 (≈ 181 µg/mL) | 8.2 | 30 | NCCCC[C@H](NC(=O)OCc1ccccc1)C(=O)c1noc(Cc2ccc(C(=O)NCCc3cccc(C(F)(F)F)c3)cc2)n1 |  |
|  | 1.9 | 330 | NCCCC[C@H](NC(=O)c1ccc(Cl)cc1)C(=O)c1noc(Cc2ccc(C(=O)NCCc3cccc(Cl)c3)cc2)n1 |  |
| 109 (≈ 65.8 µg/mL) | 1.8 | 23 | NCCCC[C@H](NC(=O)OCc1ccccc1)C(=O)c1noc(Cc2ccc(C(=O)NCCc3cccc(Cl)c3)cc2)n1 |  |
|  | 16 | 31 | NCCCC[C@H](NC(=O)OCc1ccccc1)C(=O)c1noc(Cc2ccc(C(=O)NCCc3ccc(Cl)c(Cl)c3)cc2)n1 |  |
| 337 (≈ 208 µg/mL) | 2.1 | 330 | NCCCC[C@H](NC(=O)c1ccc2c(c1)OCO2)C(=O)c1noc(Cc2ccc(C(=O)NCCc3cccc(Cl)c3)cc2)n1 |  |
| 349 (≈ 213 µg/mL) | 1.7 | 440 | NCCCC[C@H](NC(=O)c1ccc(F)c(F)c1)C(=O)c1noc(Cc2ccc(C(=O)NCCc3cccc(Cl)c3)cc2)n1 |  |
| 227 (≈ 145 µg/mL) | 220 | 27 | NCCCC[C@H](NC(=O)OCc1ccccc1)C(=O)c1noc(Cc2ccc(C(=O)NCCc3ccc(C(F)(F)F)cc3)cc2)n1 |  |
| 23 (≈ 12.5 µg/mL) |  |  | NCCCC[C@H](NC(=O)OCc1ccccc1)C(=O)c1noc(Cc2ccc(OCCc3ccccc3)cc2)n1 | inhibition at 1 µM [4]: 40% |

| Compound | solubility [1] [µM] | Ki [2] [nM] | Ki [3] [nM] | also measured |
| --- | --- | --- | --- | --- |
| CCOC(=O)N[C@@H](CCCCN)C(=O)c1noc(Cc2ccc(C(=O)NCCc3cccc(Cl)c3)cc2)n1 | 471 (≈ 255 µg/mL) | 1.9 | 180 |  |
| NCCCC[C@H](NC(=O)OCc1ccccc1)C(=O)c1noc(CN2CCN(CCCc3ccccc3)CC2)n1 | 329 (≈ 181 µg/mL) | 11 |  |  |
| CC(C)CCNC(=O)c1ccc(Cc2nc(C(=O)[C@H](CCCCN)NC(=O)OCc3ccccc3)no2)cc1 | 364 (≈ 195 µg/mL) | 9.9 | 29 | inhibition at 1 µM [4]: 0% |
| NCCCC[C@H](NC(=O)c1cccc(F)c1)C(=O)c1noc(Cc2ccc(C(=O)NCCc3cccc(Cl)c3)cc2)n1 | 422 (≈ 250 µg/mL) | 1.7 | 280 |  |
| NCCCC[C@H](NC(=O)OCc1ccccc1)C(=O)c1noc(CN2CCN(C(=O)CCCc3ccccc3)CC2)n1 | > 500 | 34 | 22 | remaining at 1 h [5]: 2%; inhibition at 10 µM [6]: 2.3% |
| NCCCC[C@H](NC(=O)OCc1ccccc1)C(=O)c1noc(Cc2ccc(C(=O)NCCc3ccccc3)cc2)n1 | 440 (≈ 251 µg/mL) | 3.2 | 20 |  |
| NCCCC[C@H](NC(=O)OCc1ccccc1)C(=O)c1noc(Cc2ccc(C(=O)NC3Cc4ccccc4C3)cc2)n1 | 206 (≈ 120 µg/mL) | 3.7 | 21 | Ki [7]: 100000 nM; Ki [8]: 48000 nM; Ki [9]: 140000 nM |
| NCCCC[C@H](NC(=O)OCc1ccccc1)C(=O)c1noc(Cc2ccc(C(=O)NCCc3cccs3)cc2)n1 | 484 (≈ 279 µg/mL) | 2.4 | 13 | inhibition at 10 µM [6]: 7.2% |
| NCCCC[C@H](NC(=O)OCc1ccccc1)C(=O)c1noc(Cc2ccc(C(=O)NCCCCc3ccccc3)cc2)n1 | 188 (≈ 112 µg/mL) | 60 | 14 |  |
| NCCCC[C@H](NC(=O)OCc1ccccc1)C(=O)c1noc(Cc2ccc(C(=O)NC/C=C/c3ccccc3)cc2)n1 | 226 (≈ 131 µg/mL) | 3.6 | 18 |  |
| NCCCC[C@H](NC(=O)OCc1ccccc1)C(=O)c1noc(CN2CCN(CCCCc3ccccc3)CC2)n1 | 466 (≈ 262 µg/mL) | 5.8 | 12 | remaining at 1 h [5]: 22% |
| NCCCC[C@H](NC(=O)OCc1ccccc1)C(=O)c1noc(CN2CCN(C(=O)OCc3ccccc3)CC2)n1 |  | 470 | 42 |  |
| NCCCC[C@H](NC(=O)OCc1ccccc1)C(=O)c1noc(Cc2ccc(C(=O)NCCCc3ccccc3)cc2)n1 | 370 (≈ 216 µg/mL) | 3 | 19 |  |
| NCCCC[C@H](NC(=O)OCc1ccccc1)C(=O)c1noc(Cc2ccc(C(=O)NCc3ccccc3)cc2)n1 | 459 (≈ 255 µg/mL) | 37 | 23 |  |
